Test results from US8148423B2, “Fluorophore compounds” (Versitech Limited, priority 2008, dated 2012).

What was measured:
[1] = Fluorescence spectra and quantum yield of rhodol fluorophores, rhodamine 6G as reference; format: physicochemical; details: 50 mM aqueous phosphate buffer at pH about 8.0, N.D. = no fluorescence detected; for QY (quantum yield): relative to rhodamine 6G (QY = 0.76 in water)
Description: (§1) The photophysical properties of the rhodol fluorophores in Table 1 were measured according to the procedures disclosed herein and are summarized in Table 1. Stock solutions were prepared by accurately weighting and dissolving about 5-10 mg of the rhodol fluorophores in Table 1 in acetonitrile (CH3CN). Absorbance solutions were prepared by further diluting the stock solution with 50 mM of potassium phosphate buffer at pH 8.0. Absorption spectra were recorded on a CARY 50 Bio UV-Visible spectrophotometer (obtainable from Varian Incorporation, Palo Alto, Calif.) under the control of a PC running the manufacturer supplied software package. Spectra were routinely acquired at 25° C., in 1 cm path length quartz cuvettes with a volume of 3.5 mL. Fluorescence spectra were recorded on a Hitachi F-2500 spectrofluorimeter (obtainable from Hitachi, Japan) under the control of a PC running the manufacturer supplied software package. Slit width was 2.5 nm for both the excitation spectrum and the fluorescence spectrum, and the photomultiplier voltage was […]. All spectra were corrected for emission intensity using the manufacturer-supplied photomultiplier curves. The quantum yields of the fluorophores may be estimated by comparison of the integrated area of the corrected emission spectrum of the sample with that of a reference solution, such as a solution of rhodamine 6 G in water (quantum efficiency 0.76). The concentration of the reference was adjusted to match the absorbance of the test sample.

[2] = Absorption spectra of rhodol fluorophores in phosphate buffer; format: physicochemical; details: for εmax: 50 mM aqueous phosphate buffer at pH about 8.0; for Abs Max: 50 mM aqueous phosphate buffer at pH about 8.0, 25° C.
Description: as §1

Row | Compound | Em Max [1] [nm] | QY (quantum yield) [1] | εmax [2] | Abs Max [2]
1 | CCN(CC)c1ccc2c(c1)Oc1cc(O)ccc1C21OC(=O)c2ccccc21 (centres unmarked) [A=H, R1=Et, R2=Et] | 549 | 0.08 | 47,000 cm^−1M^−1 | 522 nm
2 | O=C1OC2(c3ccc(O)cc3Oc3cc(NCc4ccccc4)ccc32)c2ccccc21 (centres unmarked) [A=H, R1=H, R2=Bn] | 529 | 0.95 | 71,000 cm^−1M^−1 | 503 nm
3 | C=CC(=O)Nc1ccc2c(c1)Oc1cc(O)ccc1C21OC(=O)c2ccccc21 (centres unmarked) [A=H, R1=H, R2=COCHCH2] | 524 | 0.19 |  | 462/490
4 | O=C(Nc1ccc2c(c1)Oc1cc(O)ccc1C21OC(=O)c2ccccc21)c1ccccc1 (centres unmarked) [A=H, R1=H, R2=COPh] | 525 | 0.16 |  | 462/490
5 | Nc1ccc2c(c1)Oc1cc(O)ccc1C21OC(=O)c2ccccc21 (centres unmarked) [A=H, R1=H, R2=H] | 516 | 0.98 | ~70,000 cm^−1M^−1 | 493 nm
6 | O=C1OC2(c3ccc(O)cc3Oc3cc(Nc4ccccc4)ccc32)c2ccccc21 (centres unmarked) [A=H, R1=H, R2=Ph] |  |  | 55,000 cm^−1M^−1 | 513 nm
7 | CCCCNc1ccc2c(c1)Oc1cc(O)ccc1C21OC(=O)c2ccccc21 (centres unmarked) [A=H, R1=H, R2=n-Bu] | 533 | 0.90 | 60,000 cm^−1M^−1 | 508 nm
8 | CCCNc1ccc2c(c1)Oc1cc(O)ccc1C21OC(=O)c2ccccc21 (centres unmarked) [A=H, R1=H, R2=n-Pr] | 531 | 0.94 | 61,000 cm^−1M^−1 | 507 nm
9 | CN(C)c1ccc2c(c1)Oc1cc(O)ccc1C21OC(=O)c2ccccc21 (centres unmarked) [A=H, R1=Me, R2=Me] | 544 | 0.20 | 64,000 cm^−1M^−1 | 518 nm
10 | CCCCN(CCCC)c1ccc2c(c1)Oc1cc(O)ccc1C21OC(=O)c2ccccc21 (centres unmarked) [A=H, R1=n-Bu, R2=n-Bu] | 553 | 0.12 | 63,000 cm^−1M^−1 | 525 nm
11 | O=C1OC2(c3ccc(O)cc3Oc3cc(N4CCCCC4)ccc32)c2ccccc21 (centres unmarked) [A=H, R1R2=CH2CH2CH2CH2CH2] | 555 | 0.03 | 62,500 cm^−1M^−1 | 523 nm
12 | COCOc1ccc2c(c1)Oc1cc(NC(=O)c3ccccc3)ccc1C21OC(=O)c2ccccc21 (centres unmarked) [A=MOM, R1=H, R2=COPh] |  |  |  | 293 nm
13 | CCCNc1ccc2c(c1)Oc1cc(OCOC)ccc1C21OC(=O)c2ccccc21 (centres unmarked) [A=MOM, R1=H, R2=n-Pr] | 532 | 0.35 |  | 494 nm
14 | COc1ccc2c(c1)Oc1cc(N)ccc1C21OC(=O)c2ccccc21 (centres unmarked) [A=Me, R1=H, R2=H] | 516 | 0.85 |  | 477 nm
